Patent US7098234B2, “Indole derivatives, process for preparation of the same and use thereof” (Ono Pharmaceutical Co., Ltd., priority 2000, dated 2006)

Tests used:
[1] = target: T1, mouse DP receptor (Mus musculus, UniProt P70263); experiment: Receptor binding test using prostanoid DP receptor-expressing cells (3H-PGD2 binding inhibition); settings: CHO cell membranes expressing mouse DP receptor; 3H-PGD2 2.5 nmol/L; Ki=IC50/(1+([L]*/Kd))
T1 construct: expressed in transfected cells; host or cells: CHO cells (membrane fraction)
T1 sequence (P70263 1-357): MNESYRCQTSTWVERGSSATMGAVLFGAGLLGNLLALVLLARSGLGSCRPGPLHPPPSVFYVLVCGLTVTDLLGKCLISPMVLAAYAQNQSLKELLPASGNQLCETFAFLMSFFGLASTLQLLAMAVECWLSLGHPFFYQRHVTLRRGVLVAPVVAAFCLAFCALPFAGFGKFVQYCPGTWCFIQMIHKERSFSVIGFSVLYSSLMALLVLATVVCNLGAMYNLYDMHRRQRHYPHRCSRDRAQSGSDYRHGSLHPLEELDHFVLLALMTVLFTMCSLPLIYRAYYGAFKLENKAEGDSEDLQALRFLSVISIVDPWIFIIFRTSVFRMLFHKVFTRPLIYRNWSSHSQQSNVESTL
Experimental: The compound of the present invention represented by formula (I) potently binds to a DP receptor and show an antagonistic activity. For example, in a laboratory test, such effects were confirmed by the following receptor binding test using prostanoid receptor-expressing cells. • (i) Receptor binding test using prostanoid DP receptor-expressing cells
CHO cells expressing a mouse DP receptor was prepared according to the method of Hirata et al. (Proc. Natl. Acad. Sci., 91, 11192–11196 (1994)) and used as a membrane standard.
A reaction solution (200 μL) containing the prepared membrane standard (30–166 μg) and ^3H-PGD2 was incubated at room temperature for 20 minutes. The reaction was stopped with an ice-cold buffer (1 mL) and the binding ^3H-PGD2 was trapped in on a glass filter by immediate aspiration-filtration under a reduced pressure, and its binding radioactivity was measured using a liquid scintillation counter.
A Kd value and a Bmax value were obtained from Scatchard plots (Ann. N.Y. Acad. Sci., 51, 660 (1949)). Non-specific binding was obtained as the binding radioactivity in the presence of unlabeled PGD2 at an excess amount (10 μmol/L). ^3H-PGD2 binding inhibition by the compound of the present invention was measured by adding ^3H-PGD2 (2.5 nmol/L) and the compound of the present invention as various concentrations. Also, the following buffers were used for the reactions. […]

[2] = target: T1, mouse DP receptor; experiment: DP antagonistic activity assay using prostanoid DP receptor-expressing cells (cAMP production by PGD2); assay type: cell-based; settings: CHO cells expressing mouse DP receptor; inhibition of cAMP production by PGD2 at 100 nM
Experimental: As shown in the above results, it is apparent that the compound of the present invention potently binds to a DP receptor. • (ii) DP antagonistic activity assay using prostanoid DP receptor-expressing cells
CHO cells expressing a mouse DP receptor were prepared according to the method of Nishigaki et al. (FEBS lett., 364, 339–341 (1995)), inoculated onto a 24-well microplate at 10^5 cells/well, followed by culturing for 2 days, and used for the assay. Each well was washed with 500 μL of MEM (minimum essential medium), and 450 μL of assay medium (MEM containing 1 mmol/L IBMX and 0.1 or 1% BSA), followed by incubation at 37° C. for 10 minutes. Then, an assay medium (50 μL) containing PGD2 alone or PGD2 with a test compound was added thereto to start the reaction, and after the reaction at 37° C. for 10 minutes, 500 μL of ice-cold trichloroacetatic acid (TCA) (10% w/v) was added thereto to stop the reaction. The reaction solution was frozen once (−80° C.) and thawed, and cells were peeled using a scraper, followed by centrifugation at 13,000 rpm for 3 minutes. The cAMP concentration was measured with a cAMP assay kit using the resulting supernatant. […] Trichloro acetic acid (TCA) was extracted to the chloroform layer and removed, the cAMP amount in a sample was determined using the aqueous layer as the sample according to the method described in the [^125I]cAMP assay kit. […]

Ki [1] [nM] | IC50 [2] [nM] | Structure (SMILES)
1.8 | 120 | Cc1cc2c(CC(=O)O)cccc2n1C(=O)c1ccc(OCCc2ccccc2)cc1 [1(3)]
4.3 | – | CCCCCOc1ccc(C(=O)n2c(C)cc3c(CC(=O)O)cccc32)cc1 [1(4), 1-(4-Pentyloxybenzoyl)-2-methylindole-4-acetic acid]
